Common to all, as to experiment: Membrane PBP binding assay, competition with Bocillin FL
Assay [1] has as its target PBP5 (Klebsiella pneumoniae, UniProt A6T693). To be noted: K. pneumoniae ATCC 13883 membranes. The procedure:
(§1) Membrane extracts containing PBPs were obtained as described above. Briefly, all species were grown in 1 L of TSB until the OD600 reached 0.9. The washed pellet was incubated with lysozyme (400 μg/mL), DNase (10 μg/mL) RNase(10 μg/mL) and anti-protease cocktail (200 mg/20 mL). Lysis was done with a French press (20,000 psi) and membrane protein were pelleted by ultracentrifugation steps (100,000 × g). The pellet was suspended in a minimal volume (300–500 μL) of KP 0.05 M buffer at pH 7. The protein concentration in the membrane preparations was determined with the Micro BCA TM Protein Assay Kit (Thermo Fisher Scientific, Rockford, IL) using bovine serum albumin as a standard.
(§2) The PBP binding assay was done as described previously[36],[56],[57]. For each antibiotic concentration tested, a quantity of 25 to 40 μg of membrane preparation was used as the source of PBPs, depending on the species. […]
(§3) To be able to visualize labeled PBPs after electrophoresis, gels were rinsed in water and fixed in a solution of 50% methanol and 7% acetic acid for 30 min. […] To obtain quantifiable data, the software Quantity One 1D analysis was used (version 4.6.6; Bio-Rad Laboratories, Richmond, CA). The volume (intensity × constant area) of each PBP was measured. […] The PBP profiles were confirmed, and the PBP numbering were determined using published data and individual molecular weights. […]

Assay [2] addresses PBP5 (Escherichia coli, UniProt P0AEB2). To be noted: E. coli MC4100 membranes. The procedure: as §1, §2, §3
In assay [3] the target is PBP1b (Pseudomonas aeruginosa, UniProt G3XD31). To be noted: P. aeruginosa ATCC 27853 membranes. The protocol:
as §1
(§4) The PBP binding assay was done as described previously[36],[56],[57]. For each antibiotic concentration tested, a quantity of 25 to 40 μg of membrane preparation was used as the source of PBPs, depending on the species. For the purified PaPBP3, 150 ng was used in the assay. First, increasing concentrations of the test antibiotic was added to the membrane or purified PaPBP3 preparations and incubated for 10 min at 30 °C. The reporter molecule Bocillin FL was then added at 12.5 μM for the membrane PBPs preparations and at 500 nM for the pure PaPBP3 samples for an additional 20 min at 30 °C. All reactions were stopped with the addition of the Laemmli-loading buffer (Bio-Rad) containing fresh β-mercaptoethanol (Sigma). All reactions were then heated at 100°C for 3 min before migration on SDS-polyacrylamide discontinuous gel system (7.5% stacking and 10% separating). Control samples without Bocillin FL were also included to highlight autofluorescent proteins that are not PBPs.
(§5) To be able to visualize labeled PBPs after electrophoresis, gels were rinsed in water and fixed in a solution of 50% methanol and 7% acetic acid for 30 min. The fluorescent images of gels were obtained with the Typhoon FLA 9500 instrument (GE-Healthcare Bio-Sciences Inc., Baie-d’Urfé, QC, CA) using a 473 nm excitation wavelength. To obtain quantifiable data, the software Quantity One 1D analysis was used (version 4.6.6; Bio-Rad Laboratories, Richmond, CA). The volume (intensity × constant area) of each PBP was measured. […] All IC50 data were obtained from at least two independent PBP binding assays using two different sets of compound concentrations using a linear regression. The PBP profiles were confirmed, and the PBP numbering were determined using published data and individual molecular weights. […] For example, amdinocillin (Sigma) was used for PBP2 identification. […] The IC50 for PBP 2 of P. aeruginosa was measured by including the SDS-PAGE comigrating autofluorescent protein in the background, as done previously.

The target in a further assay is PBP1a (Acinetobacter baumannii, UniProt A0ABX6CK30). To be noted: A. baumannii ATCC 19606 membranes. The protocol: as §1, §4, §5
The target in assay [4] is PBP3 (Klebsiella pneumoniae, UniProt A0A0H3GN85). To be noted: K. pneumoniae ATCC 13883 membranes. The protocol:
as §1, §4, §5

The target in assay [5] is PBP5 (Pseudomonas aeruginosa, UniProt G3XD74). To be noted: P. aeruginosa ATCC 27853 membranes. The protocol: as §1, §4, §5
In a further assay the target is PBP4 (Klebsiella pneumoniae, UniProt A0ACD7U7I2). To be noted: K. pneumoniae ATCC 13883 membranes. The protocol:
as §1, §4, §5

The target of assay [6] is PBP1b (Acinetobacter baumannii, UniProt A0ABX6CHI7). To be noted: A. baumannii ATCC 19606 membranes. The procedure:
as §1, §4, §5

The target of assay [7] is PBP3 (Acinetobacter baumannii, UniProt A0ABX6CK25). To be noted: A. baumannii ATCC 19606 membranes. The procedure: as §1, §4, §5

Bounds are passed on as bounds.

Sequence of PBP5 (Escherichia coli, UniProt P0AEB2) (P0AEB2 30-403): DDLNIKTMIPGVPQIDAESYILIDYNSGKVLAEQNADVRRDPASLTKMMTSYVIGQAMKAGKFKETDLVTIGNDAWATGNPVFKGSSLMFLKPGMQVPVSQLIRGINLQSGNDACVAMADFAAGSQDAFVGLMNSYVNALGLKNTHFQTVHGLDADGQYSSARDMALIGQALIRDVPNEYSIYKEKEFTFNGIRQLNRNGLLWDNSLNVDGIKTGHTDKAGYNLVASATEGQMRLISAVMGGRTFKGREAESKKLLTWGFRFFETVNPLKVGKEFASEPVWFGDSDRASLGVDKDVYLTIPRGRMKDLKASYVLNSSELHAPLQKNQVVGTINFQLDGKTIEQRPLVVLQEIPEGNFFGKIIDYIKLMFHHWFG
Sequence of PBP3 (Klebsiella pneumoniae, UniProt A0A0H3GN85) (A0A0H3GN85 entry or part of it): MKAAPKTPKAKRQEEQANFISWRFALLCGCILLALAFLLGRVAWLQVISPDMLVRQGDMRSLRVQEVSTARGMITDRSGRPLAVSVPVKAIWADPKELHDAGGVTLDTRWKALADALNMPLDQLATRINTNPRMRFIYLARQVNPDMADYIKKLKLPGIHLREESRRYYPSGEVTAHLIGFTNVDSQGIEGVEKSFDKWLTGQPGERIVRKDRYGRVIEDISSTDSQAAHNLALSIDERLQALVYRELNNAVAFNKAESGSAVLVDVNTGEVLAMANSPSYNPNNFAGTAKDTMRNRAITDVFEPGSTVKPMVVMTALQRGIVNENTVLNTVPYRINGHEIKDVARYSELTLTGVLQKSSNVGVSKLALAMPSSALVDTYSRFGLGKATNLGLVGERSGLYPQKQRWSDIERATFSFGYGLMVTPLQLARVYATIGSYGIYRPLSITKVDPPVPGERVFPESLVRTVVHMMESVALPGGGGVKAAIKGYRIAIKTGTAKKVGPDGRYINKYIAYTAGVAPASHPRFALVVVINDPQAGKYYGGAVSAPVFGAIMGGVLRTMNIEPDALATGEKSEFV
Sequence of PBP3 (Acinetobacter baumannii, UniProt A0ABX6CK25) (A0ABX6CK25 1-610): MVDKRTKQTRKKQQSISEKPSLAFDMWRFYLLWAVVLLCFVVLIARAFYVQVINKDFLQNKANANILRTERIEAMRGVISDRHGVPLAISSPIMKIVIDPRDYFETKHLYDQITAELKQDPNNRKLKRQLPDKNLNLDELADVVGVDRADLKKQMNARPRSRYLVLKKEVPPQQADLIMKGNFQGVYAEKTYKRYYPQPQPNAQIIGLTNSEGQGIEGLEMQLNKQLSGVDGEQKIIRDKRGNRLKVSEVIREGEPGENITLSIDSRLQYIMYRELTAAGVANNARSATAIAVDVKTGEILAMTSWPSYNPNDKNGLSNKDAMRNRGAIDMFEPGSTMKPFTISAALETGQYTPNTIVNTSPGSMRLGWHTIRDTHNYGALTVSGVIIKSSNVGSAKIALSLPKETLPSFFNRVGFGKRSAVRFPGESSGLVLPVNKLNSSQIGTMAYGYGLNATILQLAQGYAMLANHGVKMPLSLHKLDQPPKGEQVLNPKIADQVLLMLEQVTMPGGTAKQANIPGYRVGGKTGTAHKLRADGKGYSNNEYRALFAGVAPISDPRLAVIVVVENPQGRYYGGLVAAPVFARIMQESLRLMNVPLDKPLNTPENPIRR
Sequence of PBP5 (Klebsiella pneumoniae, UniProt A6T693) (A6T693 entry or part of it): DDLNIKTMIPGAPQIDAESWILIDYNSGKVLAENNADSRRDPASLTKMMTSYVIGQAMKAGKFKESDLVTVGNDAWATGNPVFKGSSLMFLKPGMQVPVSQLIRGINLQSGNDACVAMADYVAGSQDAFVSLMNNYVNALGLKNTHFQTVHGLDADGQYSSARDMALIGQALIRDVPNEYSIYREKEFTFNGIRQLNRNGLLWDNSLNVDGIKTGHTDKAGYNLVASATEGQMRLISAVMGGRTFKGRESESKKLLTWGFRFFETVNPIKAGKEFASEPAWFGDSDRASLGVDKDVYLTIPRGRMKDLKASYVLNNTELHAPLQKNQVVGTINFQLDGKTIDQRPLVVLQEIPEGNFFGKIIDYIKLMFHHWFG
Sequence of PBP5 (Pseudomonas aeruginosa, UniProt G3XD74) (G3XD74 entry or part of it): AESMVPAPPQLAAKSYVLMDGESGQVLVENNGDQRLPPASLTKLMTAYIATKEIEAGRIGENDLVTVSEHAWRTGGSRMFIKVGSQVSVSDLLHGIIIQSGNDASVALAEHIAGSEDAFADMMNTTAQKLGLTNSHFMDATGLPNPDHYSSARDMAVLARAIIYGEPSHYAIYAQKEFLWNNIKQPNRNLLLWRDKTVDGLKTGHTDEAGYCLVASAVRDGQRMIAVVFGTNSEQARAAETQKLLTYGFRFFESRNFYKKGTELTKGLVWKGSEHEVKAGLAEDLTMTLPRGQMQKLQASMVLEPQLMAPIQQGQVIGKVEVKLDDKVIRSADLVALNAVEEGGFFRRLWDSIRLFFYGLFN
Sequence of PBP1b (Pseudomonas aeruginosa, UniProt G3XD31) (G3XD31 entry or part of it): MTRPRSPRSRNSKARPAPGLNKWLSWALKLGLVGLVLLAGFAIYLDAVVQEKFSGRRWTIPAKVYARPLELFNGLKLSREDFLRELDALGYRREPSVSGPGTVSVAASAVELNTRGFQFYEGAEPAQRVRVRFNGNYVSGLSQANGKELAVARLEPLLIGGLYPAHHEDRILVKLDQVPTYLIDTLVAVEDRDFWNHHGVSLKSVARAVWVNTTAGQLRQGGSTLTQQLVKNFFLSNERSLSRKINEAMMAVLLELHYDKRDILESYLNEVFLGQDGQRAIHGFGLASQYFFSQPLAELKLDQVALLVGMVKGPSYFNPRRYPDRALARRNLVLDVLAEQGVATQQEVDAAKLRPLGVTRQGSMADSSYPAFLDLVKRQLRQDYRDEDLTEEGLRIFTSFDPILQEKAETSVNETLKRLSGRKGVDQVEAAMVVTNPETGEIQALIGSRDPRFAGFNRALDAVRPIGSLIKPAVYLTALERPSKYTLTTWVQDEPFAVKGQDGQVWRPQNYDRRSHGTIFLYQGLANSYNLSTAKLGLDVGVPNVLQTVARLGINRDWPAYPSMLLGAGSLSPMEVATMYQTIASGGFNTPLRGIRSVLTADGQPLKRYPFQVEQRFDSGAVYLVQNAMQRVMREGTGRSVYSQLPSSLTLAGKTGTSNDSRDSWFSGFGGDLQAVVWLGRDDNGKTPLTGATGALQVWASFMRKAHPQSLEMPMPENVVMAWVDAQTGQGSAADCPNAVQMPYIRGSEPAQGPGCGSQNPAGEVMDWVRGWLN
Sequence of PBP1a (A0ABX6CK30 entry or part of it): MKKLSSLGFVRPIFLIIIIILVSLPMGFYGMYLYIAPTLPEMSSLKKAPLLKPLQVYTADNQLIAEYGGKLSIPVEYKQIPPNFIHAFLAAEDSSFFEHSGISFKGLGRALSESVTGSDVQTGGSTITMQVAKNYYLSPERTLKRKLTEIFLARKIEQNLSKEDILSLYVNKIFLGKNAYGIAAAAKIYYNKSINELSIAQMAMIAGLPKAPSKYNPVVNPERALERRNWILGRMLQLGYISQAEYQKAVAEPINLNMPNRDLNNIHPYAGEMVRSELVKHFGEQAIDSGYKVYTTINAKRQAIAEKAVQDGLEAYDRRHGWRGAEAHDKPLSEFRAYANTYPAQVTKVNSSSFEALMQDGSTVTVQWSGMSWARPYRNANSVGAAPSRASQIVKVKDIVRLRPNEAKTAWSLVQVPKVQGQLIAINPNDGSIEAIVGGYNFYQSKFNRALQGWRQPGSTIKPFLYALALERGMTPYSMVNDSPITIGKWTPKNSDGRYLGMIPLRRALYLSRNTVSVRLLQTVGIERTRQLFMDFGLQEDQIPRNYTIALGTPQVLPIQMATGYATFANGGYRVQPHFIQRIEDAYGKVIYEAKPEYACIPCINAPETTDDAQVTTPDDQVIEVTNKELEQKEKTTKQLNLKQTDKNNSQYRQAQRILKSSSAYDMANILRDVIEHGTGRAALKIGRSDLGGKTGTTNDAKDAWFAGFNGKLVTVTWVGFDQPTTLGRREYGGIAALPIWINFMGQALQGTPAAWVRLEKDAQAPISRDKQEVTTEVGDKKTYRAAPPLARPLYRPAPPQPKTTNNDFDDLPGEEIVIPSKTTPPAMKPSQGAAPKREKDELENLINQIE

Regarding `N[C@@H](C(=O)N[C@@H]1C(=O)N2C(C(=O)O)=C(Cl)CC[C@H]12)c1ccccc1` [LOR, loracarbef, reference compound], the IC50 was above 50 µM at PBP5 [1]; above 50 µM at PBP5 [2]; 1.8 ± 0.5 µM on PBP1b [3]; above 50 µM on PBP1a; 4.1 ± 2.4 µM at PBP3 [4]; above 50 µM on PBP5 [5]. Moreover, the IC50 on PBP4 was 1.03 ± 0.72 µM; at PBP1b [6], above 50 µM; on PBP3 [7] it was 7.8 ± 0.8 µM.

For the origin of these results see paper PMC12592502, “Unraveling the mechanisms behind the enhanced efficacy of β-lactam-based sideromycins” (Communications Biology, 2025).
